Experimental data reported in PubChem BioAssay AID248 (DTP/NCI, 2004).
Values joined by “and” are separate entries in the source; they are usually repeats but may differ in a detail not shown here. Equal values may be shown once. Toxic doses and inconclusive results are not listed. Cut-off read from the data, not from the text of the source: active = T/C of 150% or more; inactive = T/C below 125%.

System: L1210 leukemia ip in BDF1 mice, survival T/C
Experiment: NCI In Vivo Anticancer Drug Screen. Data for tumor model L1210 Leukemia (intraperitoneal) in B6D2F1 (BDF1) mice
Settings: endpoint: mean survival time, higher = longer survival
In short: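 Mice bearing the transplanted tumor received compound or vehicle. Survival of the treated group was divided by that of the vehicle-treated control group to give the ratio.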

[1] = dose: 100.0 mg/kg/injection, schedule: Q01DX001 (ip), vehicle: saline with Tween-80
[2] = dose: 200.0 mg/kg/injection, schedule: Q01DX001 (ip), vehicle: saline with Tween-80
[3] = dose: 400.0 mg/kg/injection, schedule: Q01DX001 (ip), vehicle: saline with Tween-80
[4] = dose: 50.0 mg/kg/injection, schedule: Q01DX009 (ip), vehicle: saline
[5] = dose: 50.0 mg/kg/injection, schedule: Q01DX009 (ip), vehicle: saline with Tween-80
[6] = dose: 100.0 mg/kg/injection, schedule: Q01DX009 (ip), vehicle: Klucel (hydroxypropylcellulose) (HPC)
[7] = dose: 100.0 mg/kg/injection, schedule: Q04DX003 (ip), vehicle: Klucel (hydroxypropylcellulose) (HPC)
[8] = dose: 200.0 mg/kg/injection, schedule: Q01DX009 (ip), vehicle: Klucel (hydroxypropylcellulose) (HPC)
[9] = dose: 200.0 mg/kg/injection, schedule: Q04DX003 (ip), vehicle: Klucel (hydroxypropylcellulose) (HPC)
[10] = dose: 400.0 mg/kg/injection, schedule: Q01DX009 (ip), vehicle: Klucel (hydroxypropylcellulose) (HPC)
[11] = dose: 400.0 mg/kg/injection, schedule: Q04DX003 (ip), vehicle: Klucel (hydroxypropylcellulose) (HPC)
[12] = dose: 50.0 mg/kg/injection, schedule: Q01DX001 (ip), vehicle: carboxymethylcellulose (CMC)
[13] = dose: 100.0 mg/kg/injection, schedule: Q01DX001 (ip), vehicle: carboxymethylcellulose (CMC)
[14] = dose: 200.0 mg/kg/injection, schedule: Q01DX001 (ip), vehicle: carboxymethylcellulose (CMC)
[15] = dose: 400.0 mg/kg/injection, schedule: Q01DX001 (ip), vehicle: carboxymethylcellulose (CMC)
[16] = dose: 100.0 mg/kg/injection, schedule: Q04DX002 (ip), vehicle: Klucel (hydroxypropylcellulose) (HPC)
[17] = dose: 50.0 mg/kg/injection, schedule: Q01DX001 (ip), vehicle: saline
[18] = dose: 100.0 mg/kg/injection, schedule: Q01DX001 (ip), vehicle: saline
[19] = dose: 200.0 mg/kg/injection, schedule: Q01DX001 (ip), vehicle: saline
[20] = dose: 400.0 mg/kg/injection, schedule: Q01DX001 (ip), vehicle: saline
[21] = dose: 100.0 mg/kg/injection, schedule: Q01DX001 (ip), vehicle: Klucel (hydroxypropylcellulose) (HPC)
[22] = dose: 200.0 mg/kg/injection, schedule: Q01DX001 (ip), vehicle: Klucel (hydroxypropylcellulose) (HPC)
[23] = dose: 100.0 mg/kg/injection, schedule: Q01DX009 (ip), vehicle: saline with Tween-80
[24] = dose: 200.0 mg/kg/injection, schedule: Q01DX009 (ip), vehicle: saline with Tween-80
[25] = dose: 400.0 mg/kg/injection, schedule: Q01DX009 (ip), vehicle: saline with Tween-80

Measured: T/C

O=C1CC(c2ccc(O)cc2)CC(=O)C1C(=O)Nc1ccccc1 (stereo not given)
inactive: dose: 100.0 mg/kg/injection, schedule: Q01DX001 (ip), vehicle: other 101 % of control | dose: 200.0 mg/kg/injection, schedule: Q01DX001 (ip), vehicle: other 100 % of control | dose: 400.0 mg/kg/injection, schedule: Q01DX001 (ip), vehicle: other 97 % of control

O=[N+]([O-])c1ccc(Cl)c(OCCCOc2ccc(S(=O)(=O)F)cc2)c1
inactive: [1] 96 % of control | [2] 87 % of control | [3] 90 % of control

c1ccc2c(c1)ccc1[s+]cccc12
inactive: dose: 100.0 mg/kg/injection, schedule: Q04DX003 (ip), vehicle: acetone 100 % of control | dose: 200.0 mg/kg/injection, schedule: Q04DX003 (ip), vehicle: acetone 105 % of control

O=[N+]([O-])c1ccc(C[n+]2ccccc2)cc1
inactive: [4] 89 % of control

O=C(C[n+]1ccccc1)N/N=C/c1cccc([N+](=O)[O-])c1
inactive: [5] 91 % of control

CCCCCCCCCOc1ccc(C=Nc2ccc(CC)cc2)cc1
inactive: dose: 12.5 mg/kg/injection, schedule: Q01DX009 (ip), vehicle: Klucel (hydroxypropylcellulose) (HPC) 92 % of control | dose: 25.0 mg/kg/injection, schedule: Q01DX009 (ip), vehicle: Klucel (hydroxypropylcellulose) (HPC) 90 % of control | dose: 50.0 mg/kg/injection, schedule: Q01DX009 (ip), vehicle: Klucel (hydroxypropylcellulose) (HPC) 92 % of control

Cc1cccc(C)c1NC(=O)Oc1ccc(C2CCCCC2)cc1
inactive: [6] 101 % of control | [7] 91 % of control | [8] 97 % of control | [9] 93 % of control | [10] 94 % of control | [11] 88 % of control

Cc1ccc2c3c(c(=O)oc2c1)CCCC3
inactive: [12] 96 % of control | [13] 112 % of control | [14] 100 % of control | [15] 108 % of control

Clc1ccc(Oc2nc3c(Cl)cccc3s2)cc1Cl
inactive: [16] 101 % of control | dose: 200.0 mg/kg/injection, schedule: Q04DX002 (ip), vehicle: Klucel (hydroxypropylcellulose) (HPC) 101 % of control | dose: 400.0 mg/kg/injection, schedule: Q04DX002 (ip), vehicle: Klucel (hydroxypropylcellulose) (HPC) 97 % of control

Cc1c(C)c(C)c(Br)c(C)c1C
inactive: [17] 108 % of control | [18] 108 % of control | [19] 108 % of control | [20] 108 % of control

N#Cc1cccnc1Cl
inactive: [21] 100 % of control | [7] 96 % of control | [22] 94 % of control | [9] 87 % of control | dose: 400.0 mg/kg/injection, schedule: Q01DX001 (ip), vehicle: Klucel (hydroxypropylcellulose) (HPC) 100 % of control | [11] 99 % of control

O=c1[nH]cnc2c(C3OC(CO)C(O)C3O)[nH]nc12 (stereo not given)
inactive: dose: 10.0 mg/kg/injection, schedule: Q01DX015 (ip), vehicle: carboxymethylcellulose (CMC) 86 % of control | dose: 20.0 mg/kg/injection, schedule: Q01DX015 (ip), vehicle: carboxymethylcellulose (CMC) 88 % of control

NC(=O)c1[nH]cnc1N1CC[N+](Cc2ccccc2)=N1
inactive: [21] 102 % of control | [22] 96 % of control

O=C(NC1N=C2OC(COC(=O)c3ccccc3)C(OC(=O)c3ccccc3)C2O1)c1ccccc1 (stereo not given)
inactive: [23] 108 % of control | [24] 93 % of control | [25] 98 % of control

Nc1ccc(OCCCc2c(N)nc(N)nc2N)c(Cl)c1
inactive: [7] 96 % of control | [9] 94 % of control | [11] 97 % of control

OCCS
inactive: dose: 25.0 mg/kg/injection, schedule: Q01DX001 (ip), vehicle: saline 105 % of control | dose: 44.0 mg/kg/injection, schedule: Q01DX001 (ip), vehicle: saline 95 % of control | [17] 97 % of control | dose: 66.0 mg/kg/injection, schedule: Q01DX001 (ip), vehicle: saline 105 % of control | [18] 100 % of control and 103 % of control | dose: 150.0 mg/kg/injection, schedule: Q01DX001 (ip), vehicle: saline 103 % of control | [19] 102 % of control and 105 % of control

CCN1Cc2ccc(O)cc2C1
inactive: dose: 25.0 mg/kg/injection, schedule: Q01DX009 (ip), vehicle: saline 103 % of control | dose: 25.0 mg/kg/injection, schedule: Q04DX003 (ip), vehicle: saline 107 % of control | [4] 95 % of control | dose: 50.0 mg/kg/injection, schedule: Q04DX003 (ip), vehicle: saline 107 % of control | dose: 100.0 mg/kg/injection, schedule: Q01DX009 (ip), vehicle: saline 96 % of control and 97 % of control | dose: 100.0 mg/kg/injection, schedule: Q04DX003 (ip), vehicle: saline 100 % of control and 102 % of control

O=C1C(OCc2ccccc2)=C(OCc2ccccc2)C(=O)c2ccccc21
inactive: dose: 75.0 mg/kg/injection, schedule: Q01DX001 (ip), vehicle: acetone 91 % of control | dose: 150.0 mg/kg/injection, schedule: Q01DX001 (ip), vehicle: acetone 94 % of control | dose: 300.0 mg/kg/injection, schedule: Q01DX001 (ip), vehicle: acetone 90 % of control

C/C(CNc1nc(N)nc(N)c1N=Nc1ccc(Cl)cc1)=N\NC(N)=O
inactive: [18] 94 % of control | [19] 98 % of control | [20] 94 % of control

OC(c1ccccc1)c1ccncc1 (stereo not given)
inactive: [1] 103 % of control | [2] 97 % of control | [3] 103 % of control

CC(C)N=C(N)CSS(=O)(=O)O
inactive: dose: 25.0 mg/kg/injection, schedule: Q04DX002 (ip), vehicle: Klucel (hydroxypropylcellulose) (HPC) 101 % of control | dose: 50.0 mg/kg/injection, schedule: Q04DX002 (ip), vehicle: Klucel (hydroxypropylcellulose) (HPC) 97 % of control | [16] 101 % of control and 102 % of control

O=C(O)C1C(C(=O)O)C(c2ccccc2)C1c1ccccc1 (stereo not given)
inactive: [12] 90 % of control | [13] 97 % of control | [14] 103 % of control | [15] 90 % of control

Cc1cc(C)c([N+](=O)[O-])c(C)c1
inactive: [6] 104 % of control | [8] 97 % of control | [10] 92 % of control

O=c1/c(=C\c2ccccc2)sc2n1CCN=2
inactive: [18] 89 % of control | [19] 92 % of control | [20] 101 % of control

O=[N+]([O-])Nc1ccc(C(c2ccc(N[N+](=O)[O-])cc2)c2ccc([N+](=O)[O-])cc2)cc1
inactive: dose: 100.0 mg/kg/injection, schedule: Q01DX005 (ip), vehicle: saline with Tween-80 89 % of control | [23] 100 % of control | dose: 200.0 mg/kg/injection, schedule: Q01DX005 (ip), vehicle: saline with Tween-80 100 % of control | [24] 92 % of control | dose: 400.0 mg/kg/injection, schedule: Q01DX005 (ip), vehicle: saline with Tween-80 89 % of control | [25] 94 % of control

CC1=C(C(=O)O)CCCO1
inactive: [18] 98 % of control | [19] 98 % of control | [20] 98 % of control

CC(=O)Nc1ccc(/C=N/NC(=O)CNC(=O)NCc2ccccc2)cc1
inactive: [5] 95 % of control | [23] 89 % of control | [24] 89 % of control

Nc1nc(N)c(-c2ccc(Cl)cc2)c(CNc2ccc(/C=C/C3(CCl)OCCO3)cc2)n1
inactive: [1] 92 % of control | [2] 100 % of control | [3] 96 % of control

O=C(Nc1ccc(Nc2ccncc2)cc1)c1ccc([N+](=O)[O-])cc1
inactive: [6] 105 % of control | [7] 103 % of control | [8] 92 % of control | [9] 98 % of control | [10] 105 % of control | [11] 95 % of control

C/C=C1/C[C@@H](C)[C@@](C)(O)C(=O)OCC2=CC[N+]3([O-])CC[C@@H](OC1=O)[C@@H]23 (stereo not given in full)
inactive: dose: 20.0 mg/kg/injection, schedule: Q01DX015 (ip), vehicle: saline 98 % of control | dose: 30.0 mg/kg/injection, schedule: Q01DX015 (ip), vehicle: saline 96 % of control | dose: 40.0 mg/kg/injection, schedule: Q01DX015 (ip), vehicle: saline 102 % of control
